Measurements published in patent publication US20220409620A1, “REDUCING IMMUNOGENICITY TO PEGLOTICASE” (Horizon Pharma Rheumatology LLC, priority 2016, published 2022).

Test system: adult patients with uncontrolled gout
Assay: Health Assessment Questionnaire (HAQ-DI, HAQ pain, HAQ health), open-label study
Type: in vivo, human
Set-up: key to HAQ-Health, Observed, Median / HAQ-Health, Change from Baseline, Median: 0-100 scale; 0 = very well, 100 = very poor health; key to HAQ-DI, Observed, Median / HAQ-DI, Change from Baseline, Median: HAQ-DI scale 0-3; 0 = no difficulty, 3 = unable to do
Settings: mITT Population
Protocol: Quality-of-Life Assessment: The HAQ was administered at the Screening and Week −4 or week −6 (prior to the first dose of MTX) Visits during the MTX Run-in Period for the open-label and randomized studies, respectively; prior to pegloticase infusion at the Day 1 and Weeks 14, 24 and 36 Visits or at the Day 1 and weeks 6, 14, 20, 24, 30, 36, and 44 visits during the Pegloticase+IMM Period for the open-label and randomized studies, respectively; at the End of Pegloticase Infusions Visit (if applicable), the Week 52/End of Study/Early Termination Visit and the Post Treatment Periods 3 and 6 Month Follow-up Visits (open-label study). The HAQ-DI is a self-report functional status instrument that can be filled out by a subject in less than 5 minutes and requires 1 minute to score. The index measures disability over the past week by asking a total of 20 questions covering 8 domains of function: dressing and grooming, arising, eating, walking, hygiene, reach, grip, and usual activities. There are at least 2 questions in each domain and the 8 domains represent a comprehensive set of functional activities. The HAQ-DI is calculated by scoring the answer to each question in the HAQ from 0 to 3, with 0 representing the ability to do without any difficulty, and 3 representing inability to do. Any activity that requires assistance from another individual or requires the use of an assistive device raises a 0 or 1 score to a 2. The highest score for each of the 8 domains is summed (range from 0 to 24) and divided by 8 to yield, on a scale with 25 possible values, a Functional Disability Index with a range from 0 to 3. The disability index is based on the number of domains answered and is computed only if the subject completes answers to at least 6 domains. The HAQ pain scale asks subjects to record how much pain they have had in the past week on a scale of 0 to 100, where zero represents “no pain” and 100 represents “severe pain”. The HAQ health scale is a measure of overall health. Subjects are asked to rate how well they are doing on a score of 0 to 100, where zero represents “very well” and 100 represents “very poor” health.

[1] = Week 52/ET, Methotrexate Baseline
[2] = Week 52/ET, Pegloticase Baseline

Substance: pegloticase
- HAQ-Health, Observed, Mean (SD) (Week 14, Pegloticase Baseline): 36.6 (33.87)
- HAQ-Health, Observed, Median (Week 14, Pegloticase Baseline): 16.5
- HAQ-Pain, Change from Baseline, Mean (SD) (Week 14, Pegloticase Baseline): −16.0 (30.65)
- HAQ-Pain, Change from Baseline, Median (Week 14, Pegloticase Baseline): −12.5
- HAQ-Pain, Observed, Mean (SD) (Week 14, Pegloticase Baseline): 27.1 (26.25)
- HAQ-Pain, Observed, Median (Week 14, Pegloticase Baseline): 15.0
- HAQ-DI, Change from Baseline, Mean (SD) (Week 24, Methotrexate Baseline): −0.5 (0.74)
- HAQ-DI, Change from Baseline, Median (Week 24, Methotrexate Baseline): −0.1
- HAQ-DI, Observed, Mean (SD) (Week 24, Methotrexate Baseline): 0.2 (0.33)
- HAQ-DI, Observed, Median (Week 24, Methotrexate Baseline): 0.1
- HAQ-Health, Change from Baseline, Mean (SD) (Week 24, Methotrexate Baseline): −33.2 (36.01)
- HAQ-Health, Change from Baseline, Median (Week 24, Methotrexate Baseline): −40.0
- HAQ-Health, Observed, Mean (SD) (Week 24, Methotrexate Baseline): 21.4 (26.65)
- HAQ-Health, Observed, Median (Week 24, Methotrexate Baseline): 10.0
- HAQ-Pain, Change from Baseline, Mean (SD) (Week 24, Methotrexate Baseline): −19.2 (35.13)
- HAQ-Pain, Change from Baseline, Median (Week 24, Methotrexate Baseline): −10.0
- HAQ-Pain, Observed, Mean (SD) (Week 24, Methotrexate Baseline): 25.4 (27.50)
- HAQ-Pain, Observed, Median (Week 24, Methotrexate Baseline): 20.0
- HAQ-DI, Change from Baseline, Mean (SD) (Week 24, Pegloticase Baseline): −0.6 (0.85)
- HAQ-DI, Change from Baseline, Median (Week 24, Pegloticase Baseline): −0.1
- HAQ-DI, Observed, Mean (SD) (Week 24, Pegloticase Baseline): 0.2 (0.33)
- HAQ-DI, Observed, Median (Week 24, Pegloticase Baseline): 0.1
- HAQ-Health, Change from Baseline, Mean (SD) (Week 24, Pegloticase Baseline): −19.7 (43.38)
- HAQ-Health, Change from Baseline, Median (Week 24, Pegloticase Baseline): −10.0
- HAQ-Health, Observed, Mean (SD) (Week 24, Pegloticase Baseline): 21.4 (26.65)
- HAQ-Health, Observed, Median (Week 24, Pegloticase Baseline): 10.0
- HAQ-Pain, Change from Baseline, Mean (SD) (Week 24, Pegloticase Baseline): −16.7 (38.53)
- HAQ-Pain, Change from Baseline, Median (Week 24, Pegloticase Baseline): −10.0
- HAQ-Pain, Observed, Mean (SD) (Week 24, Pegloticase Baseline): 25.4 (27.50)
- HAQ-Pain, Observed, Median (Week 24, Pegloticase Baseline): 20.0
- HAQ-DI, Change from Baseline, Mean (SD) (Week 36, Methotrexate Baseline): −0.5 (0.80)
- HAQ-DI, Change from Baseline, Median (Week 36, Methotrexate Baseline): 0.0
- HAQ-DI, Observed, Mean (SD) (Week 36, Methotrexate Baseline): 0.3 (0.49)
- HAQ-DI, Observed, Median (Week 36, Methotrexate Baseline): 0.1
- HAQ-Health, Change from Baseline, Mean (SD) (Week 36, Methotrexate Baseline): −27.7 (42.59)
- HAQ-Health, Change from Baseline, Median (Week 36, Methotrexate Baseline): −10.0
- HAQ-Health, Observed, Mean (SD) (Week 36, Methotrexate Baseline): 27.3 (35.18)
- HAQ-Health, Observed, Median (Week 36, Methotrexate Baseline): 10.0
- HAQ-Pain, Change from Baseline, Mean (SD) (Week 36, Methotrexate Baseline): −22.9 (28.41)
- HAQ-Pain, Change from Baseline, Median (Week 36, Methotrexate Baseline): −20.0
- HAQ-Pain, Observed, Mean (SD) (Week 36, Methotrexate Baseline): 21.0 (27.60)
- HAQ-Pain, Observed, Median (Week 36, Methotrexate Baseline): 10.0
- HAQ-DI, Change from Baseline, Mean (SD) (Week 36, Pegloticase Baseline): −0.5 (0.86)
- HAQ-DI, Change from Baseline, Median (Week 36, Pegloticase Baseline): −0.1
- HAQ-DI, Observed, Mean (SD) (Week 36, Pegloticase Baseline): 0.3 (0.49)
- HAQ-DI, Observed, Median (Week 36, Pegloticase Baseline): 0.1
- HAQ-Health, Change from Baseline, Mean (SD) (Week 36, Pegloticase Baseline): −16.2 (50.72)
- HAQ-Health, Change from Baseline, Median (Week 36, Pegloticase Baseline): −10.0
- HAQ-Health, Observed, Mean (SD) (Week 36, Pegloticase Baseline): 27.3 (35.18)
- HAQ-Health, Observed, Median (Week 36, Pegloticase Baseline): 10.0
- HAQ-Pain, Change from Baseline, Mean (SD) (Week 36, Pegloticase Baseline): −19.9 (20.25)
- HAQ-Pain, Change from Baseline, Median (Week 36, Pegloticase Baseline): −20.0
- HAQ-Pain, Observed, Mean (SD) (Week 36, Pegloticase Baseline): 21.0 (27.60)
- HAQ-Pain, Observed, Median (Week 36, Pegloticase Baseline): 10.0
- HAQ-DI, Change from Baseline, Mean (SD) [1]: −0.6 (0.87)
- HAQ-DI, Change from Baseline, Median [1]: −0.1
- HAQ-DI, Observed, Mean (SD) [1]: 0.4 (0.29)
- HAQ-DI, Observed, Median [1]: 0.3
- HAQ-Health, Change from Baseline, Mean (SD) [1]: −16.7 (59.23)
- HAQ-Health, Change from Baseline, Median [1]: 15.0
- HAQ-Health, Observed, Mean (SD) [1]: 60.0 (48.22)
- HAQ-Health, Observed, Median [1]: 80.0
- HAQ-Pain, Change from Baseline, Mean (SD) [1]: −42.7 (18.04)
- HAQ-Pain, Change from Baseline, Median [1]: −44.0
- HAQ-Pain, Observed, Mean (SD) [1]: 4.0 (5.20)
- HAQ-Pain, Observed, Median [1]: 1.0
- HAQ-DI, Change from Baseline, Mean (SD) [2]: −0.8 (1.08)
- HAQ-DI, Change from Baseline, Median [2]: −0.1
- HAQ-DI, Observed, Mean (SD) [2]: 0.4 (0.29)
- HAQ-DI, Observed, Median [2]: 0.3
- HAQ-Health, Change from Baseline, Mean (SD) [2]: 23.3 (54.85)
- HAQ-Health, Change from Baseline, Median [2]: 5.0
- HAQ-Health, Observed, Mean (SD) [2]: 60.0 (48.22)
- HAQ-Health, Observed, Median [2]: 80.0
- HAQ-Pain, Change from Baseline, Mean (SD) [2]: −41.0 (25.24)
- HAQ-Pain, Change from Baseline, Median [2]: −29.0
- HAQ-Pain, Observed, Mean (SD) [2]: 4.0 (5.20)
- HAQ-Pain, Observed, Median [2]: 1.0
